In US20260344668A1, “PHENYLPYRAZOLE COMPOUND, AND PLANT DISEASE CONTROL METHOD” (priority 2022, published 2026):

How the values were obtained:
Phakopsora pachyrhizi [1] = experiment: Test Example 11 Control Test Against Soybean Rust (pot test, spraying before inoculation); assay type: in vivo; conditions: 200 ppm foliage spray, soybeans (Kurosengoku), inoculated after 2 to 5 days
Procedure: (§1) The term of “non-treated well” in Test Example 4, Test Example 5, and Test Example 6 represents a well wherein a test was carried out under the same conditions as those described in each Test Example except for dispensing DMSO instead of a diluted solution with DMSO comprising the Present compound. Also, the term of “non-treated” in Test Examples 15 to 17 represents a test which was carried out under the same conditions as those described in each Test Example except for dispensing DMSO instead of a diluted solution with DMSO comprising the Present compound. Also, the term of “non-treated leaf disk” in Test Example 7 represents a leaf disk wherein a test was carried out under the same conditions as those described in the Test Example except for dispensing DMSO instead of a diluted solution with DMSO comprising the Present compound. Also, the term of “non-treated” in Test Example 10 and Test Example 11 means that a diluted solution with water of a formulation comprising the Present compound was not sprayed.
A plastic pot was filled with soil, soybeans (cultivar: Kurosengoku) were seeded thereto, and cultured in a greenhouse for 10 to 14 days. The Present compound 9, 10, 11, 13, 14, 15, 17, 18, 20, 21, 22, 23, 26, 27, 33, 34, 35, 36, 37, 38, 39, 40, 41, 42, 43, 44, 46, 47, 53, 54, 55, 56, 57, 58, 66, 67, 68, 69, 70, 71, 73, 74, 75, 76, 77, 78, 79, 80, 81, 82, 83, 84, 85, 86, 87, 88, 89, 90, 91, 92, 93, 94, 95, 96, 97, 98, 99, 100, 101, or 102 formulated according to the method described in the Formulation Example 1 was mixed with water in such a way that the concentration thereof was 200 ppm, and the resulting mixture was sprayed to foliage of the above soybeans so as to adequately adhere onto the surfaces of leaves of the above soybeans. After spraying the mixture, the soybeans were air-dried. After 2 to 5 days, an aqueous suspension of spores of Phakopsora pachyrhizi was inoculated by spraying to the soybeans. After the inoculation, the soybeans were placed in a greenhouse at 23° C. in daytime and at 20° C. in nighttime under a humid condition for 1 to 2 day(s), then cultured in a greenhouse for 12 days, and then a lesion area was investigated. As a result, the lesion area in the soybeans treated with each of the above Present compound was 30% or less relative to the lesion area in the non-treated soybeans.

[2] = system: soybean rust fungus (Phakopsora pachyrhizi) having an amino acid substitution of F129L in a mitochondrial cytochrome b protein; experiment: Test Example 7 Control Test Against Soybean Rust (leaf disk); assay type: in vivo; conditions: 200 ppm, 10 μL per soybean leaf disk (cultivar: Kurosengoku), inoculated after 1 day
Procedure: as §1
A true leaf of a soybean (cultivar: Kurosengoku) was cut into a diameter of 1 cm to prepare each leaf disk. To each well of a 24 well microplate was dispensed 1 mL of an agar medium (agar concentration 1.2%), and then one of said leaf disk was placed on the agar medium in each well. To a mixture of Sorpol (registered trademark) 1200KX (0.5 μL), DMSO (4.5 μL), and xylene (5 μL) was added a DMSO solution (20 μL) comprising a test compound (10000 ppm), and the resulting mixture was mixed. The resulting mixture was diluted with ion exchange water to prepare a mixture comprising a prescribed concentration of the test compound.
The resulting mixture was sprayed into each leaf disk at a ratio of 10 μL per leaf disk. After 1 day, an aqueous suspension of spores of soybean rust fungus (Phakopsora pachyrhizi) having an amino acid substitution of F129L in a mitochondrial cytochrome b protein (1.0×10^5/mL) was inoculated by spraying on each leaf disk. After the inoculation, the microplate was placed into an artificial climate chamber (Lighting: 6 hours, Lights-out: 18 hours, Temperature: 23° C., Humidity: 60%). After 1 day, the leaf disks were air-dried until water droplets on the surfaces of the leaf disks disappeared, and the microplate was placed into the artificial climate chamber again for 12 days. Then, lesion area of soybean rust was investigated. As a result, when the prescribed concentration was 200 ppm, each lesion area of leaf disk treated with any one of the Present compound 9, 10, 11, 13, 14, 15, 16, 17, 18, 20, 32, 33, 34, 35, 36, 37, 38, 39, 40, 42, 43, 44, 47, 48, 49, 50, 51, 52, 53, 55, 56, 57, 58, 62, 63, 64, 65, 66, 67, 68, 69, 70, 71, 73, 74, 75, 76, 77, 78, 79, 80, 81, 82, 83, 84, 85, 86, 87, 88, 89, 90, 91, 92, 93, 94, 95, 96, 97, 98, 99, 100, 101, or 102 as the test compound was 30% or less relative to the lesion area of non-treated leaf disk.

Phakopsora pachyrhizi [3] = experiment: Test Example 15 Control Test Against Soybean Rust Fungus (spore germination, 96 well titer plate); assay type: cell-based; conditions: treatment concentration 1 ppm, 23° C., several hours
Procedure: as §1
The Present compound was diluted with DMSO to obtain a diluted solution containing 150 ppm of the compound, and 1 μL of the diluted solution was dispensed into a titer plate (96 well), and thereto was then dispensed 149 μL of an aqueous suspension (1.0×10^4/mL) of spores of Phakopsora pachyrhizi to which spores of Phakopsora pachyrhizi were suspended in advance. This plate was cultured at 23° C. for several hours, and then germinated spores of Phakopsora pachyrhizi were counted. As a result, when the treatment concentration was 1 ppm, the number of germinated spores in each well comprising any one of the Present compound 1, 11, 17, 18, 20, 23, 30, 33, 34, 35, 36, 37, 38, 39, 40, 41, 42, 43, 44, 46, 47, 48, 49, 50, 51, 52, 53, 54, 55, 56, 57, 58, 62, 63, 64, 65, 66, 67, 68, 69, 70, 71, 72, 73, 74, 75, 76, 77, 78, 79, 80, 81, 82, 83, 84, 85, 86, 87, 88, 89, 90, 91, 92, 93, 94, 95, 96, 97, 98, 99, 100, 101, or 102 as the test compound was 50% or less relative to the number of germinated spores in the non-treated well.

Structure (SMILES) | lesion area relative to the lesion area in the non-treated soybeans (Phakopsora pachyrhizi [1]) [%] | lesion area relative to the lesion area of non-treated leaf disk [2] [%] | number of germinated spores relative to the non-treated well (Phakopsora pachyrhizi [3]) [%]
O=S(=O)(c1ccc(F)cc1)n1ccc(-c2cc(F)c(Br)c(F)c2)n1 [compound 14] | ≤ 30 | ≤ 30 | 
O=S(=O)(c1ccco1)n1ccc(-c2cc(F)cc(F)c2)n1 [compound 73] | ≤ 30 | ≤ 30 | ≤ 50
O=S(=O)(c1ccc(Cl)s1)n1ccc(-c2cc(F)c(Br)c(F)c2)n1 [compound 47] | ≤ 30 | ≤ 30 | ≤ 50
O=S(=O)(c1cccc(Cl)c1)n1ccc(-c2cc(F)c(Br)c(F)c2)n1 [compound 18] | ≤ 30 | ≤ 30 | ≤ 50
O=S(=O)(c1ccco1)n1ccc(-c2cccc(F)c2)n1 [compound 94] | ≤ 30 | ≤ 30 | ≤ 50
Cc1ccc(S(=O)(=O)n2ccc(-c3cc(F)c(Br)c(F)c3)n2)cc1 [compound 21] | ≤ 30 |  | 
O=S(=O)(c1cc(Cl)cc(Cl)c1)n1ccc(-c2cc(F)c(Br)c(F)c2)n1 [compound 16] |  | ≤ 30 | 
O=S(=O)(c1ccccc1F)n1ccc(-c2cc(F)c(Br)c(F)c2)n1 [compound 13] | ≤ 30 | ≤ 30 | 
O=S(=O)(c1cccnc1Cl)n1ccc(-c2cc(F)c(Br)c(F)c2)n1 [compound 54] | ≤ 30 |  | ≤ 50
COc1ccc(S(=O)(=O)n2ccc(-c3cc(F)c(Br)c(F)c3)n2)cc1 [compound 22] | ≤ 30 |  | 
N#Cc1cccc(S(=O)(=O)n2ccc(-c3cc(F)c(Br)c(F)c3)n2)c1 [compound 26] | ≤ 30 |  | 
Cc1ccc(S(=O)(=O)n2ccc(-c3ccc(Cl)cc3)n2)cc1 [compound 1] |  |  | ≤ 50
Cc1ccc(S(=O)(=O)n2ccc(-c3cc(F)c(Br)c(F)c3)n2)o1 [compound 72] |  |  | ≤ 50
CN(C)c1ccc(-c2ccn(S(=O)(=O)c3cccs3)n2)cc1 [compound 46] | ≤ 30 |  | ≤ 50
O=S(=O)(c1c(Cl)cccc1Cl)n1ccc(-c2cc(F)c(Br)c(F)c2)n1 [compound 15] | ≤ 30 | ≤ 30 | 
N#Cc1ccc(S(=O)(=O)n2ccc(-c3cc(F)c(Br)c(F)c3)n2)cc1 [compound 27] | ≤ 30 |  | 
O=S(=O)(c1cccs1)n1ccc(-c2ccc3c(c2)OC(F)(F)O3)n1 [compound 63] |  | ≤ 30 | ≤ 50
COc1cccc(S(=O)(=O)n2ccc(-c3cc(F)c(Br)c(F)c3)n2)c1 [compound 23] | ≤ 30 |  | ≤ 50
O=S(=O)(c1cc2ccccc2o1)n1ccc(-c2cc(F)c(Br)c(F)c2)n1 [compound 30] |  |  | ≤ 50
O=S(=O)(c1cccs1)n1ccc(-c2ccc3ncsc3c2)n1 [compound 65] |  | ≤ 30 | ≤ 50
O=S(=O)(c1cccs1)n1ccc(-c2ccc3nonc3c2)n1 [compound 64] |  | ≤ 30 | ≤ 50
